Measured values published in PMC10364317, “Regulation of indole‐3‐acetic acid biosynthesis and consequences of auxin production deficiency in Serratia plymuthica” (Microbial Biotechnology, 2023).
Entries after “also recorded” stand apart in the source; their conditions may differ. Read-outs that look alike come from different tables or passages of the source.

What was measured:
TyrRA153 [1] = biological target: T1, TyrRA153 (Serratia plymuthica, UniProt A0A318P557); assay: Isothermal titration calorimetry of TyrRA153 with ligands; format: binding, Serratia plymuthica A153; conditions: for competition with L-Tyr for binding at the ATP-dependent site of TyrRA153: 10 mM competitor, 1 mM ATP, titration with 1 mM L-Tyr
Protocol: (§1) Measurements were made using a VP‐ITC microcalorimeter (MicroCal, Inc., Northampton, MA) at 10–25°C. HpaAA153 and HpaRA153 were dialyzed into 50 mM Tris, 300 mM NaCl, 10% (v/v) glycerol, 2 mM β‐mercaptoethanol, pH 8.0. Alternatively, TyrRA153 was dialyzed into 5 mM Tris, 5 mM PIPES, 5 mM MES, 150 mM NaCl, 10 mM MgCl2, 10 mM β‐mercaptoethanol, 10% (v/v) glycerol, pH 7.5. Proteins at 5–50 μM were placed into the sample cell and titrated with 3.2–12.8 μL aliquots of 0.5–10 mM ligand solutions made up in the corresponding dialysis buffers. For DNA binding studies, wild‐type and mutant oligonucleotides corresponding to the TyrR box were synthesized and annealed. Briefly, an equimolar mixture of 200 μM of each complementary oligonucleotide was prepared in 10 mM Tris, 50 mM NaCl, 1 mM EDTA, pH 7.5. This mixture was subsequently incubated at 95°C for 5 min, chilled on ice and dialyzed in the same buffer used for TyrRA153 ITC studies. A typical experiment consisted in an injection of 3.2–12.8 μL aliquots of 100 μM DNA into a 5–20 μM protein solution in the absence and presence of TyrR ligands (e.g. 1 mM L‐Trp; 1 mM L‐Phe; 0.1 mM L‐Tyr; 0.5 mM ATP). Protein‐DNA interaction studies were done at 10°C. In all cases, the mean enthalpies measured from the injection of the ligand in the buffer were subtracted from raw titration data before data analysis with the ORIGIN software (MicroCal).

HpaAA153 = HpaAA153 (Serratia plymuthica, UniProt A0A7T2WCJ6); assay: Isothermal titration calorimetry of HpaAA153 with ligands; format: binding, Serratia plymuthica A153
HpaAA153, sequence (A0A7T2WCJ6 entry or part of it): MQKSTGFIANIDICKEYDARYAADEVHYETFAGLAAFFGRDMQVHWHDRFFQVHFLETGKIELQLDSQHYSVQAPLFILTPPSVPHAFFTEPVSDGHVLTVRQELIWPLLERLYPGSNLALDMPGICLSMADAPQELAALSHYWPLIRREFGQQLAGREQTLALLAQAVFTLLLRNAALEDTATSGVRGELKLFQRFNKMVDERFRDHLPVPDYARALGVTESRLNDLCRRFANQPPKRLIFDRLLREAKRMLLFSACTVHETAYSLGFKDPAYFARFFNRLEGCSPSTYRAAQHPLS
Protocol: as §1

HpaRA153 = assay: Isothermal titration calorimetry of HpaRA153 with ligands; format: binding, Serratia plymuthica A153
Protocol: as §1

ipdc promoter = assay: β-Galactosidase assay of the ipdc promoter fusion (P ipdc::lacZ; pMAMV302); format: cell-based, Serratia plymuthica A153; conditions: for induction of ipdc gene expression compared to the same medium lacking the ligand: minimal medium with 15 mM glucose, 1 mM ligand, 24 h
Protocol: Expression of the lacZ reporter gene was monitored during growth using 2‐nitrophenyl β‐D‐galactopyranoside (ONPG; Merck) as a substrate, as described previously (Miller, [1972]). The transcriptional fusion assays were carried out using S. plymuthica A153 LacZ (control) or derived mutants.

TyrRA153 [2] = biological target: T1, TyrRA153; assay: Microcalorimetric titrations of TyrRA153 with 26-bp DNA oligomers of the ipdc promoter (TyrR box); format: binding, Serratia plymuthica A153; conditions: wild-type ipdc promoter oligomer; for increase of TyrRA153 DNA binding affinity: saturating ligand concentration
Protocol: as §1

[3] = parameters: method as in Patten et al., [2013]; conditions: ref Patten et al., [2013]; cited from earlier work
TyrR (TyrRA153) [4] = biological target: T2, TyrR (TyrRA153) (Serratia plymuthica A153, UniProt A0A318P557 1-523); assay: ITC; no amino acid or ATP; 10 mM MgCl2; ITC: 5 mM Tris, 5 mM PIPES, 5 mM MES, 150 mM NaCl, 10 mM MgCl2, 10 mM beta-mercaptoethanol, 10% glycerol, pH 7.5, 10 C; 100 uM DNA injected into 5-20 uM TyrR; conditions: protein: recombinant; tags: N-terminal His6; chain copies: 2; blunt
T2 sequence: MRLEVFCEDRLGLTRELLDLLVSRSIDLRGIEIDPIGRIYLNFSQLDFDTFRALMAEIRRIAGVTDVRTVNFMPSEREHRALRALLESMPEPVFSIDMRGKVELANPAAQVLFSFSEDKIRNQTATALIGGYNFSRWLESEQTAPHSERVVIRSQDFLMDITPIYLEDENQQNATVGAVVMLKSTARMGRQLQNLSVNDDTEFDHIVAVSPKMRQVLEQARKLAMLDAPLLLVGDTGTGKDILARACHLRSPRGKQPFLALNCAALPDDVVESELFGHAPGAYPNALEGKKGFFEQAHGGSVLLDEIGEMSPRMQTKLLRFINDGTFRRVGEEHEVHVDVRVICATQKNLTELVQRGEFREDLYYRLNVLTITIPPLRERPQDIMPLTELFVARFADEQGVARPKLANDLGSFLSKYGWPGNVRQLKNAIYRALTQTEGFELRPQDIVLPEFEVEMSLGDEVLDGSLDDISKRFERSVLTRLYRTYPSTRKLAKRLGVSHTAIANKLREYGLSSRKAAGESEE

TyrR (TyrRA153) [5] = biological target: T2, TyrR (TyrRA153); assay: ITC; L-Tyr + ATP (saturating; e.g. 0.1 mM L-Tyr, 0.5 mM ATP); 10 mM MgCl2; ITC: 5 mM Tris, 5 mM PIPES, 5 mM MES, 150 mM NaCl, 10 mM MgCl2, 10 mM beta-mercaptoethanol, 10% glycerol, pH 7.5, 10 C; 100 uM DNA injected into 5-20 uM TyrR; conditions: protein: recombinant; tags: N-terminal His6; chain copies: 2; blunt
TyrR (TyrRA153) [6] = biological target: T2, TyrR (TyrRA153); assay: ITC; L-Phe (saturating; e.g. 1 mM); 10 mM MgCl2; ITC: 5 mM Tris, 5 mM PIPES, 5 mM MES, 150 mM NaCl, 10 mM MgCl2, 10 mM beta-mercaptoethanol, 10% glycerol, pH 7.5, 10 C; 100 uM DNA injected into 5-20 uM TyrR; conditions: protein: recombinant; tags: N-terminal His6; chain copies: 2; blunt
[7] = ITC, ligand alone (absence of ATP for amino acids)
[8] = ITC, ligand alone (absence of ATP for amino acids), read-out: K D
[9] = ITC, in the presence of ATP, read-out: K D

Nc1ncnc2c1ncn2[C@@H]1O[C@H](COP(=O)(O)OP(=O)(O)OP(=O)(O)O)[C@@H](O)[C@H]1O [ATP]
ΔH (TyrRA153 [1]; [7]): -22.9 ± 1.5 kcal/mol | Kd (TyrRA153 [1]; [8]): 16 ± 0.7 µM

O=C(O)C(=O)Cc1c[nH]c2ccccc12 [Indole-3-pyruvic acid]
binding to HpaAA153 as determined by isothermal titration calorimetry (HpaAA153): did not bind | binding to HpaRA153 as determined by isothermal titration calorimetry (HpaRA153): did not bind

O=C(O)c1ccc(O)cc1 [4‐hydroxybenzoic acid]
Kd (HpaAA153): 28.5 ± 2 µM | ΔH (HpaAA153; ITC, One binding site model): -0.4 ± 0.03 kcal/mol | binding to HpaRA153 as determined by isothermal titration calorimetry (HpaRA153): did not bind

N[C@@H](Cc1ccccc1)C(=O)O [L‐Phe, L‐Phenylalanine]
induction of ipdc gene expression compared to the same medium lacking the ligand (ipdc promoter; 30°C): 5.1 fold | increase of TyrRA153 DNA binding affinity (TyrRA153 [2]): 2.6 fold | competition with L-Tyr for binding at the ATP-dependent site of TyrRA153 (TyrRA153 [1]; ITC): compete with L‐Tyr for binding | ΔH (TyrRA153 [1]; ITC, in the presence of ATP): -0.2 ± 0.01 kcal/mol | Kd (TyrRA153 [1]; [9]): 193 ± 24 µM | K D (TyrRA153 [1]; [7]): bound; also recorded: Binding ^a | ΔH (TyrRA153 [1]; [7]): Binding ^a

O=C(O)Cc1ccccc1 [PAA, phenylacetic acid]
binding to HpaAA153 as determined by isothermal titration calorimetry (HpaAA153): did not recognize | binding to HpaAA153 as determined by isothermal titration calorimetry (HpaAA153; listed as Phenylacetic acid): did not bind | binding to HpaRA153 as determined by isothermal titration calorimetry (HpaRA153): did not recognize | binding to HpaRA153 as determined by isothermal titration calorimetry (HpaRA153; listed as Phenylacetic acid): did not bind

O=C(O)c1ccccc1O [Salicylic acid]
binding to HpaAA153 as determined by isothermal titration calorimetry (HpaAA153): did not bind | binding to HpaRA153 as determined by isothermal titration calorimetry (HpaRA153): did not bind

O=C(O)Cc1c[nH]c2ccccc12 [IAA, Indole‐3‐acetic acid]
binding to HpaAA153 as determined by isothermal titration calorimetry (HpaAA153): unable to observe IAA binding | binding to HpaAA153 as determined by isothermal titration calorimetry (HpaAA153; listed as Indole-3-acetic acid): did not bind | effect of supplementation on ipdc expression (ipdc promoter; 0.25 mM and 1 mM, wild-type A153 and ipdc mutant): did not result in altered ipdc expression | induction of ipdc gene expression compared to the same medium lacking the ligand (ipdc promoter; 30°C): No changes in ipdc expression | binding to TyrRA153 as determined by isothermal titration calorimetry (TyrRA153 [1]): did not bind | binding to HpaRA153 as determined by isothermal titration calorimetry (HpaRA153): unable to observe IAA binding | binding to HpaRA153 as determined by isothermal titration calorimetry (HpaRA153; listed as Indole-3-acetic acid): did not bind | pKa [3]: 4.8

O=C(O)Cc1cccc(O)c1 [3-hydroxyphenylacetic acid]
binding to HpaRA153 as determined by isothermal titration calorimetry (HpaRA153): did not bind

O=C(O)Cc1ccc(O)cc1 [4HPA, 4‐hydroxyphenylacetic acid]
Kd (HpaAA153): 28.5 µM | binding to HpaRA153 as determined by isothermal titration calorimetry (HpaRA153): unable to observe the binding

Cc1cccc(C(=O)O)c1 [3-methylbenzoic acid]
binding to HpaAA153 as determined by isothermal titration calorimetry (HpaAA153): did not bind | binding to HpaRA153 as determined by isothermal titration calorimetry (HpaRA153): did not bind

O=C(O)Cc1ccc(O)c(O)c1 [3,4HPA, 3,4‐dihydroxyphenylacetic acid]
binding to HpaAA153 as determined by isothermal titration calorimetry (HpaAA153): did not bind | binding to HpaRA153 as determined by isothermal titration calorimetry (HpaRA153): unable to observe the binding | binding to HpaRA153 as determined by isothermal titration calorimetry (HpaRA153; listed as 3,4-dihydroxyphenylacetic acid): did not bind

N[C@@H](Cc1c[nH]c2ccccc12)C(=O)O [L‐Trp, L‐Tryptophan]
effect of supplementation on ipdc transcription (ipdc promoter; LB medium, different concentrations, 30°C): did not result in increased ipdc transcription | induction of ipdc gene expression compared to the same medium lacking the ligand (ipdc promoter; 30°C): no changes in ipdc expression | reduction of TyrRA153 DNA affinity (TyrRA153 [2]; presence of ligand): 2.3 fold | competition with L-Tyr for binding at the ATP-dependent site of TyrRA153 (TyrRA153 [1]; ITC): compete with L‐Tyr for binding | ΔH 1 (TyrRA153 [1]; ITC, in the presence of ATP): -1.8 ± 0.3 kcal/mol | ΔH 2 (TyrRA153 [1]; ITC, in the presence of ATP): -7.9 ± 1.7 kcal/mol | Kd (TyrRA153 [1]; ITC, in the presence of ATP, read-out: K D1): 1640 µM | Kd (TyrRA153 [1]; ITC, in the presence of ATP, read-out: K D2): 2060 µM | K D (TyrRA153 [1]; [7]): bound | ΔH (TyrRA153 [1]; [7]): -1.6 ± 0.5 kcal/mol | Kd (TyrRA153 [1]; [8]): 2680 ± 670 µM

N[C@@H](Cc1ccc(O)cc1)C(=O)O [L‐Tyr, L‐Tyrosine]
induction of ipdc gene expression compared to the same medium lacking the ligand (ipdc promoter; 30°C): 11.0 fold | increase of TyrRA153 DNA binding affinity (TyrRA153 [2]): 2.4 fold | ΔH (TyrRA153 [1]; ITC, in the presence of ATP): -6.8 ± 0.1 kcal/mol | Kd (TyrRA153 [1]; [9]): 6 ± 0.2 µM | K D (TyrRA153 [1]; [7]): No binding | ΔH (TyrRA153 [1]; [7]): No binding

O=C(O)c1ccccc1 [Benzoic acid]
binding to HpaAA153 as determined by isothermal titration calorimetry (HpaAA153): did not bind | binding to HpaRA153 as determined by isothermal titration calorimetry (HpaRA153): did not bind

B1: Pipdc-wt-ITC (wild-type TyrR box) (dsDNA)
DNA 1: CCCCTGTAAAGGAGCCATTACATCAA
DNA 2: TTGATGTAATGGCTCCTTTACAGGGG
Kd (TyrR (TyrRA153) [4]): 193 ± 20 nM | Kd (TyrR (TyrRA153) [5]): 81 ± 10 nM | Kd (TyrR (TyrRA153) [6]): 74 ± 10 nM

B2: Pipdc-mut-ITC (mutant TyrR box) (dsDNA)
DNA 1: CCCCGACGTGGGAGCCGCCGTGTCAA
DNA 2: TTGACACGGCGGCTCCCACGTCGGGG
binding result (TyrR (TyrRA153) [4]): no binding
